Consider 32 compounds from patent publication US7598382B2, “Aryl substituted imidazoquinolines” (Coley Pharmaceutical Group, Inc., priority 2002, dated 2009).

Structures can show the parent of a compound that is named as a salt.

As usually defined, the melting point is the temperature, or range, at which the solid turns liquid. In the case of `CCCCCCC1(CCCCCC)c2cc(-c3ccc4c(c3)nc(N)c3nc(CCOC)n(CCCN5CCCC5=O)c34)ccc2-c2ccc(-c3ccc4c(c3)nc(N)c3nc(CCOC)n(CCCN5CCCC5=O)c34)cc21` [Example 476, 1-[4-Amino-7-(7-{4-amino-2-(2-methoxyethyl)-1-[3-(pyrrolidin-2-one)propyl]-1H-imidazo[[4,5-c]quinolin-7-yl}-9,9-dihexyl-9H-fluoren-2-yl)-2-(2-methoxyethyl)-1H-imidazo[4,5-c]quinolin-1-yl]propyl}pyrrolidin-2-one], the melting point fell in the range of 251 to 254 °C.
The compound `CCCc1nc2c(N)nc3cc(CCc4ccc(C)s4)ccc3c2n1CC(C)C` [Example 461, 1-(2-Methylpropyl)-7-[2-(5-methylthiophen-2-yl)ethyl]-2-propyl-1H-imidazo[4,5-c]quinolin-4-amine] came in with a melting point of 150 to 152 °C.
The same measure for `CCOCc1nc2c(N)nc3cc(-c4cncc(OC)c4)ccc3c2n1CC(C)(C)OCCS(C)(=O)=O` [Example 364, 2-Ethoxymethyl-1-{2-[2-(methanesulfonyl)ethoxy]-2-methylpropyl}-7-(5-methoxypyridin-3-yl)-1H-imidazo[4,5-c]quinolin-4-amine]: 186 to 188 °C.
Compound `CCOCc1nc2c(N)nc3cc(CCc4ccc(C(F)(F)F)cc4)ccc3c2n1CC(C)C` [Example 117, 2-Ethoxymethyl-1-(2-methylpropyl)-7-{2-[(trifluoromethyl)phenyl]ethyl}-1H-imidazo[4,5-c]quinolin-4-amine] came in with a melting point of 175.5 to 178 °C.
`CCCCc1nc2c(N)nc3cc(-c4cccnc4)ccc3c2n1CCNC(=O)C(C)C` [Example 390, N-{2-[4-Amino-2-butyl-7-(pyridin-3-yl)-1H-imidazo[4,5-c]quinolin-1-yl]ethyl}-2-methylpropanamide] yielded a melting point of 228 to 230 °C.
`CCOCc1nc2c(N)nc3cc(-c4cccnc4)ccc3c2n1C[C@@H]1COC(C)(C)O1` [Example 487, (R)-1-[(2,2-Dimethyl-1,3-dioxolan-4-yl)methyl]-2-ethoxymethyl-7-(pyridin-3-yl)-1H-imidazo[4,5-c]quinolin-4-amine]: the melting point was in the range of 155 to 156 °C.
For `CCOCc1nc2c(N)nc3cc(-c4cccnc4)ccc3c2n1CC1CCN(C(=O)OC(C)(C)C)CC1` [Example 176, tert-Butyl 4-{[4-amino-2-ethoxymethyl-7-(pyridin-3-yl)-1H-imidazo[4,5-c]quinolin-1-yl]methyl}piperidine-1-carboxylate] the value was 197 to 198 °C; for `CCCCc1nc2c(N)nc3cc(CCc4ccccc4)ccc3c2n1CC(C)C` [Example 8, 2-Butyl-1-isobutyl-7-phenethyl-1H-imidazo[4,5-c]quinolin-4-amine], 181 to 182 °C; for `CCCCc1nc2c(N)nc3cc(-c4ccccc4OCCC)ccc3c2n1CC(C)C` [Example 6, 2-Butyl-1-isobutyl-7-(2-propoxyphenyl)-1H-imidazo[4,5-c]quinolin-4-amine], 174.5 to 176 °C.
Compound `CCCc1nc2c(N)nc3cc(/C=C/c4cccc(OC)c4)ccc3c2n1CC(C)C` [Example 443, (E)-7-[2-(3-Methoxyphenyl)vinyl]-1-(2-methylpropyl)-2-propyl-1H-imidazo[4,5-c]quinolin-4-amine] registered a melting point of 181 to 183 °C.
`CCOCc1nc2c(N)nc3cc(-c4cccc(C(=O)N5CCOCC5)c4)ccc3c2n1CCCOC` [Example 174, {3-[4-Amino-2-ethoxymethyl-1-(3-methoxypropyl)-1H-imidazo[4,5-c]quinolin-7-yl]phenyl}morpholin-4-ylmethanone] yielded a melting point of 174 to 176 °C.
For `COCCc1nc2c(N)nc3cc(-c4ccsc4)ccc3c2n1CC(C)(C)O` [Example 137, 1-[4-Amino-2-(2-methoxyethyl)-7-(thiophen-3-yl)-1H-imidazo[4,5-c]quinolin-1-yl]-2-methylpropan-2-ol] the value was 233 to 234 °C.
For `CCOCc1nc2c(N)nc3cc(-c4cccnc4)ccc3c2n1CCCCCS(=O)(=O)NC` [Example 371, Methyl 5-[4-amino-2-ethoxymethyl-7-(pyridin-3-yl)-1H-imidazo[4,5-c]quinolin-1-yl]pentane-1-sulfonamide] the value was 191 to 192 °C; for `CCOCc1nc2c(N)nc3cc(-c4ccc(-c5ccc6c(c5)nc(N)c5nc(COCC)n(CC(C)(C)O)c56)cc4)ccc3c2n1CC(C)(C)O` [Example 474, 1-(4-Amino-7-{4-[4-amino-2-ethoxymethyl-1-(2-hydroxy-2-methylpropyl)-1H-imidazo[4,5-c]quinolin-7-yl]phenyl}-2-ethoxymethyl-1H-imidazo[4,5-c]quinolin-1-yl)-2-methylpropan-2-ol], 325 to 328 °C; for `CCOCc1nc2c(N)nc3cc(-c4cccc(C(=O)N5CCCC5)c4)ccc3c2n1CC(C)(C)O` [Example 129, {3-[4-Amino-2-ethoxymethyl-1-(2-hydroxy-2-methylpropyl)-1H-imidazo[4,5-c]quinolin-7-yl]phenyl}pyrrolidin-1-ylmethanone], 216.5 to 217.5 °C.
For `CCOCc1nc2c(N)nc3cc(-c4cccnc4)ccc3c2n1CCCCNC(=O)NC(C)C` [Example 379, N-{4-[4-Amino-2-ethoxymethyl-7-(pyridin-3-yl)-1H-imidazo[4,5-c]quinolin-1-yl]butyl}-N′-(1-methylethyl)urea] the value was 192 to 194 °C; for `CCCc1nc2c(N)nc3cc(-c4cccnc4)ccc3c2n1CCCCNC(=O)OC(C)(C)C` [Example 158, tert-Butyl {4-[4-amino-2-propyl-7-(pyridin-3-yl)-1H-imidazo[4,5-c]quinolin-1-yl]butyl}carbamate], 136 to 138 °C.
In the case of `CCOCc1nc2c(N)nc3cc(-c4cccnc4)ccc3c2n1CCCOC` [Example 164, 2-Ethoxymethyl-1-(3-methoxypropyl)-7-(pyridin-3-yl)-1H-imidazo[4,5-c]quinolin-4-amine], the melting point is 151 to 152 °C.
For `CCOCc1nc2c(N)nc3cc(-c4cncc(CO)c4)ccc3c2n1CC1CCCCC1` [Example 439, 1-Cyclohexylmethyl-2-ethoxymethyl-7-(5-hydroxymethylpyridin-3-yl)-1H-imidazo[4,5-c]quinolin-4-amine] the value was 240 to 241 °C.
In turn, `CC(C)Cn1cnc2c(N)nc3ccc(CCCCc4ccccc4)cc3c21` [Example 426, 1-(2-Methylpropyl)-8-(4-phenylbutyl)-1H-imidazo[4,5-c]quinolin-4-amine] registered a melting point of 176 to 177 °C.
For `CCOCc1nc2c(N)nc3cc(-c4ccc(Cl)cc4)ccc3c2n1CCCOC` [Example 169, 7-(4-Chlorophenyl)-2-ethoxymethyl-1-(3-methoxypropyl)-1H-imidazo[4,5-c]quinolin-4-amine] the value was 188 to 190 °C; for `CCOCc1nc2c(N)nc3cc(-c4cccnc4)ccc3c2n1CC1CCCCN1` (centres unmarked) (as salt: hydrochloride) [Example 491, 2-Ethoxymethyl-1-(piperidin-2-ylmethyl)-7-(pyridin-3-yl)-1H-imidazo[4,5-c]quinolin-4-amine trihydrochloride], more than 250 °C.
In the case of `CCOCc1nc2c(N)nc3cc(-c4cccnc4)ccc3c2n1C[C@H]1COC(C)(C)O1` [Example 489, (S)-1-[(2,2-Dimethyl-1,3-dioxolan-4-yl)methyl]-2-ethoxymethyl-7-(pyridin-3-yl)-1H-imidazo[4,5-c]quinolin-4-amine], the melting point was 157 to 158 °C.
The same measure for `COCc1nc2c(N)nc3cc(-c4cncc(CO)c4)ccc3c2n1CC(C)(C)O` (hydrate or solvate) [Example 402, 1-[4-Amino-7-(5-hydroxymethylpyridin-3-yl)-2-methoxymethyl-1H-imidazo[4,5-c]quinolin-1-yl]-2-methylpropan-2-ol]: 224 to 225 °C; for `CCOCc1nc2c(N)nc3cc(-c4ccc(OC(C)C)cc4)ccc3c2n1CCCOC` [Example 173, 2-Ethoxymethyl-7-[4-(2-propoxy)phenyl]-1-(3-methoxypropyl)-1H-imidazo[4,5-c]quinolin-4-amine]: 175 to 177 °C.
The same measure for `CC(C)Cn1cnc2c(N)nc3ccc(C=Cc4ccccc4)cc3c21` [Example 122, 1-(2-Methylpropyl)-8-styryl-1H-imidazo[4,5-c]quinolin-4-amine]: 228 to 230 °C; for `CCc1nc2c(N)nc3ccc(-c4ccccc4)cc3c2n1CC(C)C` [Example 16, 2-Ethyl-1-isobutyl-8-phenyl-1H-imidazo[4,5-c]quinolin-4-amine]: 233 to 235 °C; for `CCCc1nc2c(N)nc3cc(Cc4ccccc4)ccc3c2n1CC(C)(C)O` (hydrate or solvate) [Example 432, 1-(4-Amino-7-benzyl-2-propyl-1H-imidazo[4,5-c]quinolin-1-yl)-2-methylpropan-2-ol]: 130 to 131 °C.
Compound `CCOCc1nc2c(N)nc3cc(-c4cccnc4)ccc3c2n1CCCCS(=O)(=O)NCc1ccc(OC)cc1` [Example 367, 4-Methoxybenzyl 4-[4-amino-2-ethoxymethyl-7-(pyridin-3-yl)-1H-imidazo[4,5-c]quinolin-1-yl]butane-1-sulfonamide] had a melting point of 230 to 231.5 °C.
The same measure for `CCOCc1nc2c(N)nc3cc(-c4ccc(S(=O)(=O)CC)cc4)ccc3c2n1CCCOC` [Example 172, 7-[(4-Ethanesulfonyl)phenyl]-2-ethoxymethyl-1-(3-methoxypropyl)-1H-imidazo[4,5-c]quinolin-4-amine]: 156 to 158 °C; for `CCOCc1nc2c(N)nc3cc(-c4ccncc4)ccc3c2n1CC(C)(C)O` [Example 127, 1-[4-Amino-2-ethoxymethyl-7-(pyridin-4-yl)-1H-imidazo[4,5-c]quinolin-1-yl]-2-methylpropan-2-ol]: 220 to 221 °C; for `CCOCc1nc2c(N)nc3cc(-c4ccccc4)ccc3c2n1CC(C)(C)NC(=O)NC1CCCCC1` [Example 203, N-[2-(4-Amino-2-ethoxymethyl-7-phenyl-1H-imidazo[4,5-c]quinolin-1-yl)-1,1-dimethylethyl]-N′-cyclohexylurea]: 152 to 156 °C.
